Where a SMILES comes first, the peptide text is derived from it. The star is where a group is joined. Cbz = O=C(OCc1ccccc1)*; OtBu = CC(C)(C)O*
Test system: BMP-2
Experiment: BMP-2 gene expression (qPCR, normalized over 18S) in human dermal fibroblasts
Type: cell-based
Procedure: An examination of gene expression of BMP-2 was conducted using a number of proteasome inhibitors including, proteasome inhibitor-1, curcumin, MG-132 and bortezomib. Human neonatal dermal fibroblasts (AllCells, Catalog No. HN006001) were maintained in Dulbecco's modified Eagle's medium (DMEM) supplemented with 10% fetal bovine serum. Early passage cells were plated at 2×10^4 cells/cm^2 and grown in humidified 5% CO2 at 37° C. for 24 hours. Spent media was replaced the following day with assay media including Proteasome inhibitor-1 was added in DMEM at 1 μM and 0.1 μM. Untreated cells were used as the control group. For the human osteogenesis PCR array, the experimental group was treated only at 1 μM.
Phenol-chloroform extraction was performed to isolate the total RNA for real time polymerase chain reaction array. More specifically, the total RNA was prepared using TRI REAGENT (Ambion, product number 9738), wherein the total RNA was obtained from the human neonatal dermal fibroblasts. Note that isolation was performed as per the instructions provided with the TRI REAGENT. The RNA was used for subsequent quantitative polymerase chain reaction (qPRC) gene expression of BMP-2 measured using hydrolysis probes (TAQMAN probes available from Applied Biosystems) as described further below.
Concentration and integrity of the obtained total RNA was assessed by absorbance in a spectrophotometer at 260 nm and 280 nm and by electrophoresis in 1% agarose with formaldehyde loading dye. For TAQMAN gene expression assays, cDNA was synthesized from 2 μg of total RNA using the High Capacity cDNA Reverse Transcription Kit (Applied Biosystems, product number 4368814), again following the protocol supplied with the kit. The resulting cDNA was diluted 1:10.
For TAQMAN gene expression, gene-specific fluorescent labeled TAQMAN primers for FAM-BMP2 (Applied Biosystems, product number Hs00154192.m1) and TAQMAN reference VIC-18S ribosomal RNA (Applied Biosystems, product number 4310893E) were used to target the gene of interest. A cocktail of universal master mix (Applied Biosystems, product number 4369016) was prepared individually for both set of primers which contained Taq Polymerase, dNTPs, and buffer. Template cDNA's were added separately to respective individual wells in triplicate samples. PCR was performed on StepOne Plus Real Time System instrument (Applied Biosystems). The amplification program consisted of 1 cycle of 95° C. with 10 minute hold (hot start) followed by 50 cycles of 95° C. with 15 second annealing hold and 1 minute 60° C. specified acquisition hold.
For human osteogenisis PCR array, total RNA was prepared using silica matrix purification using RNEASY MINI KIT (Qiagen, product number 74101) according to the manufacturer's recommendations. cDNA was synthesized from 1 μg of purified DNA-free RNA accordingly to RT^2First Strand Kit (SABiosciences, C-03). The resulting cDNA was diluted 1:30 and amplified. The procedure for the PCR array using real-time PCR is based on the RT^2 Profiler PCR array system instructions for Human Osteogenesis (SABiosciences, product number PAHS-026C). A cocktail reaction mix was setup as recommended by the PCR manufacturer (SABiosceiences, product number PA-012). PCR was performed using the same temperature parameters as used with the StepOne Plus Real Time System instrument. The Ct value of endogenous reference gene (i.e. 18s) was used to control for input RNA and then used to normalize target gene (i.e. BMP-2) tested from the same cDNA sample (Δ Ct), and then calibrated to an internal reference sample (ΔΔCt). Change in gene expression was determined by the expression 2̂-(ΔΔCt).
In addition, as alluded to above a similar methodology using 10 μmM and 100 μM of curcumin, 0.1 μM and 1 μM of bortezomib, and 0.1 μM and 1 μM of MG-132 proteasome inhibitors was performed.

[1] = 0.1 μM inhibitor, FIG. 24, non-treated approximately 1.50
[2] = 1 μM inhibitor, FIG. 24, non-treated approximately 1.50

Row | Compound | BMP-2/18S mRNA levels [1] | BMP-2/18S mRNA levels [2] | also measured
1 | CC(C)C[C@@H](C=O)NC(=O)[C@H](CC(C)C)NC(=O)[C@H](CC(C)C)NC(=O)OCc1ccccc1 [MG132] (Cbz-Leu-Leu-Leu-aldehyde) | 5.95 a.u. | approximately 9.51 a.u. | –
2 | CC[C@H](C)[C@H](NC(=O)OCc1ccccc1)C(=O)N[C@@H](CCC(=O)OC(C)(C)C)C(=O)N[C@@H](C)C(=O)N[C@H](C=O)CC(C)C [PS-1, Z-Ile-Glu(OBu^t)-Ala-Leu-H] (Cbz-IE(OtBu)AL-aldehyde) | – | – | BMP-2/18S mRNA levels (0.1 μm PS-1, FIG. 22, non-treated control approximately 1.38): 9.01 au; BMP-2/18S mRNA levels (1.0 μm PS-1, FIG. 22, non-treated control approximately 1.38): 12.5 au
3 | CC(C)C[C@H](NC(=O)[C@H](Cc1ccccc1)NC(=O)c1cnccn1)B(O)O [bortezomib] | 6.55 a.u. | 9.68 a.u. | –
4 | COc1cc(/C=C/C(=O)CC(=O)/C=C/c2ccc(O)c(OC)c2)ccc1O [curcumin] | – | – | BMP-2/18S mRNA levels (10 μM curcumin, FIG. 23, non-treated approximately 1.38): 2.87 a.u.; BMP-2/18S mRNA levels (100 μM curcumin, FIG. 23, non-treated approximately 1.38): 0.903 a.u.

Reference: patent publication US20110009332A1, “Therapeutic Treatment Of Wounds” (SOUTHWEST RESEARCH INSTITUTE, priority 2009, published 2011)
